Measurements as given in US11814367B2, “Inhibitors of glycogen synthase 1 (GYS1) and methods of use thereof” (Maze Therapeutics, Inc., priority 2021, dated 2023).

Key:
[1] = target: hGYS1 enzyme (recombinant hGYS1/GN1 protein) (Homo sapiens (Human), UniProt P13807); assay: GYS1 coupled enzyme assay (PK/LDH); assay type: biochemical; conditions: hGYS1/GN1 50 nM, UDP-Glucose 0.8 mM, G6P 1 mM; geometric mean of at least 2 runs
[2] = test system: hGYS1 enzyme / glycogen synthesis in HeLa cells; assay: GYS1 cell based assay (glycogen synthesis, Glucose-glo); set-up: species or system human; conditions: Homo sapiens, HeLa, 24 h, 24 h incubation, 20 mM glucose, geometric mean of at least 2 runs
Outline: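 HeLa cells starved 24 h in medium containing only 1× Glutamax were plated onto compound in medium with 20 mM glucose (1% DMSO final) for 24 h, 37 °C, 5% CO2. Acid lysates were Tris-quenched, glucoamylase-digested (pH 5.3, 1 h, 37 °C) and read by Glucose-glo luminescence. IC50 came from Hill fits, as geometric mean of ≥2 runs.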

[3] = target: hGYS2 enzyme (recombinant hGYS2/GN1 protein) (Homo sapiens (Human), UniProt P54840); assay: GYS2 coupled enzyme assay (PK/LDH); assay type: biochemical; conditions: geometric mean of at least 2 assay runs on separate days, read-out: Avg_IC50
hGYS2 enzyme (recombinant hGYS2/GN1 protein), sequence (P54840 whole entry): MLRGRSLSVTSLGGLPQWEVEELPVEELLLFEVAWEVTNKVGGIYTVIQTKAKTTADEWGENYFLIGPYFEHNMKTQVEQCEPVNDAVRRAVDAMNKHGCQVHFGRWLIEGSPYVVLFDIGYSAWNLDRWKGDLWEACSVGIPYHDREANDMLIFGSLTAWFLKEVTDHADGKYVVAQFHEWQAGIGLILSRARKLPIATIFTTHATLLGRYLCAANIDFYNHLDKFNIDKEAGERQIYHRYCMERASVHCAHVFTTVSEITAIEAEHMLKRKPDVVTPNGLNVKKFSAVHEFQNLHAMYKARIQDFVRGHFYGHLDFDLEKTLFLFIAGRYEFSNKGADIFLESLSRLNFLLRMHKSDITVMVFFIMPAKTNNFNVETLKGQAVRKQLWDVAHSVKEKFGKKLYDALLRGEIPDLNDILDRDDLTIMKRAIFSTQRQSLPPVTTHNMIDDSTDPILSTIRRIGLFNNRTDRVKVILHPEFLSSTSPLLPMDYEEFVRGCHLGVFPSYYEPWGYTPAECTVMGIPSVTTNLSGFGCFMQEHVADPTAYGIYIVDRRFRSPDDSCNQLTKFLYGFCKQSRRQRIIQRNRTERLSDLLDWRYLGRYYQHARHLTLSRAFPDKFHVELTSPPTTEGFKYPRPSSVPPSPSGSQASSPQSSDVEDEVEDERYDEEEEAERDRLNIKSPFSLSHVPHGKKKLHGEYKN
hGYS2 enzyme (recombinant hGYS2/GN1 protein), sequence (P46976 whole entry partner): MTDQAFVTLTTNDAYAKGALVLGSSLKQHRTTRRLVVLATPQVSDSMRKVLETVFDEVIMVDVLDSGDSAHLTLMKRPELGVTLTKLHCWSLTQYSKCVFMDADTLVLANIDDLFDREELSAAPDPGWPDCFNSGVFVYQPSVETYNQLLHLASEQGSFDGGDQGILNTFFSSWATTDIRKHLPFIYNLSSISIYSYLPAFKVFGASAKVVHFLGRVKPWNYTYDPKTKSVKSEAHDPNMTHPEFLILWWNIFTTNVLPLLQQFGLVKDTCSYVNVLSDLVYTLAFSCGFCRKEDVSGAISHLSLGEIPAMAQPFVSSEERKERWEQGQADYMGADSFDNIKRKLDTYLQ
Outline: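 Continuous PK/LDH-coupled readout of NADH loss at 340 nm over 10 min, with 200 nM hGYS2/GN1 and 2 mM each of UDP-glucose, glucose-6-phosphate and PEP, in 50 mM Tris pH 7.5 with 0.2% glycogen and 2.5% DMSO. Slopes were normalized to controls and IC50s fit to a Hill curve from duplicates.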

hGYS1 enzyme (recombinant hGYS1/GN1 protein), sequence (P13807 whole entry): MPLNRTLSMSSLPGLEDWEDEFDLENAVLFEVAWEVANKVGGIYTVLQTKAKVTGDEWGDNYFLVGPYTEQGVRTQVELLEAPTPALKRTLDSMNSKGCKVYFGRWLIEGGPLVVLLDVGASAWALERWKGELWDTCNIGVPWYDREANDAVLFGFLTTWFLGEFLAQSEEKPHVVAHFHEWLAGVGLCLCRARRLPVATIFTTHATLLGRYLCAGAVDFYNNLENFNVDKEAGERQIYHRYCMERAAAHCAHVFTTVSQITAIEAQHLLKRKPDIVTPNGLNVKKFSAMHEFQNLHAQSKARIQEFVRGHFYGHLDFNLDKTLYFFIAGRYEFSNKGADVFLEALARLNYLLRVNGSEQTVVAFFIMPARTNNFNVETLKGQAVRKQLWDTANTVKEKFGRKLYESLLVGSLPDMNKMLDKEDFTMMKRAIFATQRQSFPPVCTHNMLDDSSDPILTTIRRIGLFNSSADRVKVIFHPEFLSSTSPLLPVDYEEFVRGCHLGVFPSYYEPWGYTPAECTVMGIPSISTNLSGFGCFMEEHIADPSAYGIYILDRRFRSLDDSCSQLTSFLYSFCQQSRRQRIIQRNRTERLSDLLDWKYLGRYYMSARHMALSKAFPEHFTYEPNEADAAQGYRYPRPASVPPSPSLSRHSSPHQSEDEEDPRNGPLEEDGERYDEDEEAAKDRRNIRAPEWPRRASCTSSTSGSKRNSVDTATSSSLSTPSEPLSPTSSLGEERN
hGYS1 enzyme (recombinant hGYS1/GN1 protein), sequence (P46976 whole entry partner): as the sequence (P46976 whole entry partner) above

SMILES | IC50 [1] | IC50 [2] | IC50 [3]
O=C(N[C@@H](c1ccccc1)c1ccc(C2CC2)c(F)n1)[C@@H]1C[C@@H](F)CN1C(=O)Cn1cccn1 [Compound 723, (2S,4R)-N-[(S)-(5-cyclopropyl-6-fluoropyridin-2-yl)(phenyl)methyl]-4-fluoro-1-[2-(1H-pyrazol-1-yl)acetyl]pyrrolidine-2-carboxamide] | 46 nM | 720 nM | > 100000 nM
Cc1ccnn1CC(=O)N1C[C@H](F)C[C@H]1C(=O)N[C@@H](c1ccccc1)c1ccc(C2CC2)c(F)n1 [Compound 724, (2S,4R)-N-[(S)-(5-cyclopropyl-6-fluoropyridin-2-yl)(phenyl)methyl]-4-fluoro-1-[2-(5-methyl-1H-pyrazol-1-yl)acetyl]pyrrolidine-2-carboxamide] | 34 nM | 630 nM | > 100000 nM
O=C(N[C@@H](c1ccccc1)c1ccc(C2CC2)c(F)n1)[C@@H]1C[C@@H](F)CN1C(=O)Cn1cc(N2CCC2)nn1 [Compound 726, (2S,4R)-1-{2-[4-(azetidin-1-yl)-1H-1,2,3-triazol-1-yl]acetyl}-N-[(S)-(5-cyclopropyl-6-fluoropyridin-2-yl)(phenyl)methyl]-4-fluoropyrrolidine-2-carboxamide] | 30 nM | 540 nM | > 100000 nM
O=C(N[C@@H](c1ccccc1)c1ccc(C2CC2)c(F)n1)[C@@H]1C[C@@H](F)CN1C(=O)Cn1ccc(=O)[nH]c1=O [Compound 727, (2S,4R)-N-[(S)-(5-cyclopropyl-6-fluoropyridin-2-yl)(phenyl)methyl]-1-[2-(2,4-dioxo-1,2,3,4-tetrahydropyrimidin-1-yl)acetyl]-4-fluoropyrrolidine-2-carboxamide] | 17 nM | 910 nM | > 100000 nM
O=C(N[C@@H](c1ccccc1)c1ccc(C2CC2)c(F)n1)[C@@H]1C[C@@H](F)CN1C(=O)Cn1cc(C(F)(F)F)cn1 [Compound 728, (2S,4R)-N-[(S)-(5-cyclopropyl-6-fluoropyridin-2-yl)(phenyl)methyl]-4-fluoro-1-{2-[4-(trifluoromethyl)-1H-pyrazol-1-yl]acetyl}pyrrolidine-2-carboxamide] | 36 nM | 790 nM | > 100000 nM
O=C(N[C@@H](c1ccccc1)c1ccc(C2CC2)c(F)n1)[C@@H]1C[C@@H](F)CN1C(=O)Cn1ccc(C(F)F)n1 [Compound 729, (2S,4R)-N-[(S)-(5-cyclopropyl-6-fluoropyridin-2-yl)(phenyl)methyl]-1-{2-[3-(difluoromethyl)-1H-pyrazol-1-yl]acetyl}-4-fluoropyrrolidine-2-carboxamide] | 39 nM | 710 nM | > 100000 nM
O=C(N[C@@H](c1ccccc1)c1ccc(C2CC2)c(F)n1)[C@@H]1C[C@@H](F)CN1C(=O)Cc1ccc[nH]c1=O [Compound 731, (2S,4R)-N-[(S)-(5-cyclopropyl-6-fluoropyridin-2-yl)(phenyl)methyl]-4-fluoro-1-[2-(2-oxo-1,2-dihydropyridin-3-yl)acetyl]pyrrolidine-2-carboxamide] | 66 nM | 1620 nM | > 100000 nM
Cc1cc(CC(=O)N2C[C@H](F)C[C@H]2C(=O)N[C@@H](c2ccccc2)c2ccc(C3CC3)c(F)n2)c[nH]c1=O [Compound 732, (2S,4R)-N-[(S)-(5-cyclopropyl-6-fluoropyridin-2-yl)(phenyl)methyl]-4-fluoro-1-[2-(5-methyl-6-oxo-1,6-dihydropyridin-3-yl)acetyl]pyrrolidine-2-carboxamide] | 27 nM | 1370 nM | > 100000 nM
O=C(N[C@@H](c1ccccc1)c1ccc(C2CC2)c(F)n1)[C@@H]1C[C@@H](F)CN1C(=O)Cc1ccc(=O)[nH]c1 [Compound 734, (2S,4R)-N-[(S)-(5-cyclopropyl-6-fluoropyridin-2-yl)(phenyl)methyl]-4-fluoro-1-[2-(6-oxo-1,6-dihydropyridin-3-yl)acetyl]pyrrolidine-2-carboxamide] | 26 nM | 1730 nM | > 100000 nM
CCn1cc(CC(=O)N2C[C@H](F)C[C@H]2C(=O)N[C@@H](c2ccccc2)c2ccc(C3CC3)c(F)n2)ccc1=O [Compound 736, (2S,4R)-N-[(S)-(5-cyclopropyl-6-fluoropyridin-2-yl)(phenyl)methyl]-1-[2-(1-ethyl-6-oxo-1,6-dihydropyridin-3-yl)acetyl]-4-fluoropyrrolidine-2-carboxamide] | 20 nM | 780 nM | > 100000 nM
CC(C)c1ccc([C@@H](NC(=O)[C@@H]2C[C@@H](F)CN2S(=O)(=O)Cc2cnn[nH]2)c2ccccc2)cc1F [Compound 772, (2S,4R)-4-fluoro-N-[(S)-[3-fluoro-4-(propan-2-yl)phenyl](phenyl)methyl]-1-[(1H-1,2,3-triazol-5-yl)methanesulfonyl] pyrrolidine-2-carboxamide] | 356 nM | 4530 nM | > 100000 nM

The next molecules have a lower IC50 [1] than those just listed; values first:

IC50 [1] | IC50 [2] | IC50 [3] | SMILES
15 nM | 310 nM | > 100000 nM | O=C(N[C@@H](c1ccccc1)c1ccc(C2CC2)c(F)n1)[C@@H]1C[C@@H](F)CN1C(=O)Cn1nccc1C(F)F [Compound 725, (2S,4R)-N-[(S)-(5-cyclopropyl-6-fluoropyridin-2-yl)(phenyl)methyl]-1-{2-[5-(difluoromethyl)-1H-pyrazol-1-yl]acetyl}-4-fluoropyrrolidine-2-carboxamide]
5 nM | 150 nM | > 100000 nM | CCn1c(=O)c(C)cn(CC(=O)N2C[C@H](F)C[C@H]2C(=O)N[C@@H](c2ccccc2)c2ccc(C3CC3)c(F)n2)c1=O [Compound 733, (2S,4R)-N-[(S)-(5-cyclopropyl-6-fluoropyridin-2-yl)(phenyl)methyl]-1-[2-(3-ethyl-5-methyl-2,4-dioxo-1,2,3,4-tetrahydropyrimidin-1-yl)acetyl]-4-fluoropyrrolidine-2-carboxamide]
5 nM | 270 nM | > 100000 nM | CCn1c(=O)ccn(CC(=O)N2C[C@H](F)C[C@H]2C(=O)N[C@@H](c2ccccc2)c2ccc(C3CC3)c(F)n2)c1=O [Compound 735, (2S,4R)-N-[(S)-(5-cyclopropyl-6-fluoropyridin-2-yl)(phenyl)methyl]-1-[2-(3-ethyl-2,4-dioxo-1,2,3,4-tetrahydropyrimidin-1 yl)acetyl]-4-fluoropyrrolidine-2-carboxamide]
9 nM | 280 nM | > 100000 nM | CC(C)c1ccc([C@@H](NC(=O)[C@@H]2C[C@@H](F)CN2C(=O)CCn2nc3ccccn3c2=O)c2ccccc2)nc1F [Compound 780, (2S,4R)-4-fluoro-N-[(S)-[6-fluoro-5-(propan-2-yl)pyridin-2-yl](phenyl)methyl]-1-{3-{3-oxo-2H,3H-[1,2,4]triazolo[4,3-a]pyridin-2-yl}propanoyl)pyrrolidine-2-carboxamide]
11 nM | 270 nM | > 100000 nM | CC(C)c1ccc([C@@H](NC(=O)[C@@H]2C[C@@H](F)CN2C(=O)Cn2cccn2)c2ccccc2)nc1F [Compound 781, (2S,4R)-4-fluoro-N-[(S)-[6-fluoro-5-(propan-2-yl)pyridin-2-yl](phenyl)methyl]-1-[2-(1H-pyrazol-1-yl)acetyl]pyrrolidine-2-carboxamide]
